Values after ≈ are worked out from the molar mass of the structure shown. Non-standard residues stand in square brackets, D forms with d. Residues, ends and D or L forms follow the SMILES beside them. Bip = N[C@@H](Cc1ccc(-c2ccccc2)cc1)C(=O)O; pY = N[C@@H](Cc1ccc(OP(=O)(O)O)cc1)C(=O)O; pT = C[C@@H](OP(=O)(O)O)[C@H](N)C(=O)O; 2Nal = N[C@@H](Cc1ccc2ccccc2c1)C(=O)O
Tests used:
Staphylococcus aureus [1] = experiment: Antibacterial activity against methicillin resistant Staphylococcus aureus ATCC 33591 incubated for 18 to 24 hrs by broth microdilution method; assay type: functional; conditions: time 18-24 hrs
Staphylococcus aureus [2] = experiment: Antibacterial activity against methicillin resistant Staphylococcus aureus 48 incubated for 18 to 24 hrs by broth microdilution method; assay type: functional; conditions: time 18-24 hrs
Staphylococcus aureus [3] = experiment: Antibacterial activity against Staphylococcus aureus 794 incubated for 18 to 24 hrs by broth microdilution method; assay type: functional; conditions: time 18-24 hrs
Escherichia coli [4] = experiment: Antibacterial activity against Escherichia coli 780 incubated for 18 to 24 hrs by broth microdilution method; assay type: functional; conditions: time 18-24 hrs
Escherichia coli [5] = experiment: Antibacterial activity against Escherichia coli 850 incubated for 18 to 24 hrs by broth microdilution method; assay type: functional; conditions: time 18-24 hrs
Pseudomonas aeruginosa [6] = experiment: Antibacterial activity against Pseudomonas aeruginosa 119 incubated for 18 to 24 hrs by broth microdilution method; assay type: functional; conditions: time 18-24 hrs
Staphylococcus aureus [7] = experiment: Antibacterial activity against Staphylococcus aureus ATCC 25923 incubated for 18 to 24 hrs by broth microdilution method; assay type: functional; conditions: time 18-24 hrs
Bacillus subtilis = experiment: Antibacterial activity against Bacillus subtilis ATCC 23857 incubated for 18 to 24 hrs by broth microdilution method; assay type: functional; conditions: time 18-24 hrs
Escherichia coli [8] = experiment: Antibacterial activity against Escherichia coli ATCC 25922 incubated for 18 to 24 hrs by broth microdilution method; assay type: functional; conditions: time 18-24 hrs
Pseudomonas aeruginosa [9] = experiment: Antibacterial activity against Pseudomonas aeruginosa ATCC 27853 incubated for 18 to 24 hrs by broth microdilution method; assay type: functional; conditions: time 18-24 hrs
Klebsiella pneumoniae = experiment: Antibacterial activity against Klebsiella pneumoniae ATCC 700603 incubated for 18 to 24 hrs by broth microdilution method; assay type: functional; conditions: time 18-24 hrs
Acinetobacter baumannii = experiment: Antibacterial activity against Acinetobacter baumannii ATCC 19606 incubated for 18 to 24 hrs by broth microdilution method; assay type: functional; conditions: time 18-24 hrs
[10] = Hemolytic activity in mouse erythrocyte incubated for 1 hr by microplate reader assay; assay type: toxicity, cell-based
[11] = Cytotoxicity against HEK293T cells incubated for 1 hr by fluorescence based microplate reader assay; assay type: toxicity, cell-based, HEK-293T; conditions: human

Compound	MIC (Staphylococcus aureus [1]) [µM]	MIC (Staphylococcus aureus [2]) [µM]	MIC (Staphylococcus aureus [3]) [µM]	MIC (Escherichia coli [4]) [µM]	MIC (Escherichia coli [5]) [µM]	MIC (Pseudomonas aeruginosa [6]) [µM]	MIC (Staphylococcus aureus [7]) [µM]	MIC (Bacillus subtilis) [µM]	MIC (Escherichia coli [8]) [µM]	MIC (Pseudomonas aeruginosa [9]) [µM]	MIC (Klebsiella pneumoniae) [µM]	MIC (Acinetobacter baumannii) [µM]	MHC [10] [µM]	CC50 at 1 h [11] [µM]
CC(C)C[C@H](NC(=O)[C@H](CC(C)C)NC(=O)[C@@H](NC(=O)[C@H](CCCCN)NC(=O)[C@H](Cc1ccc2ccccc2c1)NC(=O)[C@H](CCCNC(=N)N)NC(=O)[C@H](CCCCN)NC(=O)[C@H](CC(C)C)NC(=O)[C@H](CC(C)C)NC(=O)CN)[C@@H](C)OP(=O)(O)O)C(N)=O (H-GLLKR[2Nal]K[pT]LL-NH2)	> 128	> 128	128 (≈ 169 µg/mL)	> 128	128 (≈ 169 µg/mL)	128 (≈ 169 µg/mL)	> 128	128 (≈ 169 µg/mL)	> 128	128 (≈ 169 µg/mL)	> 128	128 (≈ 169 µg/mL)	> 256	> 128
CC(C)C[C@H](NC(=O)[C@H](CC(C)C)NC(=O)[C@@H](NC(=O)[C@H](CCCCN)NC(=O)[C@H](Cc1ccc(-c2ccccc2)cc1)NC(=O)[C@H](CCCNC(=N)N)NC(=O)[C@H](CCCCN)NC(=O)[C@H](CC(C)C)NC(=O)[C@H](CC(C)C)NC(=O)CN)[C@@H](C)O)C(N)=O (H-GLLKR[Bip]KTLL-NH2)	8 (≈ 10.1 µg/mL)	8 (≈ 10.1 µg/mL)	8 (≈ 10.1 µg/mL)	8 (≈ 10.1 µg/mL)	8 (≈ 10.1 µg/mL)	16 (≈ 20.2 µg/mL)	16 (≈ 20.2 µg/mL)	4 (≈ 5.05 µg/mL)	8 (≈ 10.1 µg/mL)	4 (≈ 5.05 µg/mL)	8 (≈ 10.1 µg/mL)	16 (≈ 20.2 µg/mL)	145.56	127
CC(C)C[C@H](NC(=O)[C@H](CC(C)C)NC(=O)[C@H](Cc1ccc(O)cc1)NC(=O)[C@H](CCCCN)NC(=O)[C@H](CC(C)C)NC(=O)[C@H](CCCNC(=N)N)NC(=O)[C@H](CCCCN)NC(=O)[C@H](Cc1ccc2ccccc2c1)NC(=O)[C@H](CC(C)C)NC(=O)CN)C(N)=O (H-GL[2Nal]KRLKYLL-NH2)	8 (≈ 10.4 µg/mL)	8 (≈ 10.4 µg/mL)	8 (≈ 10.4 µg/mL)	8 (≈ 10.4 µg/mL)	8 (≈ 10.4 µg/mL)	8 (≈ 10.4 µg/mL)	8 (≈ 10.4 µg/mL)	4 (≈ 5.2 µg/mL)	8 (≈ 10.4 µg/mL)	8 (≈ 10.4 µg/mL)	8 (≈ 10.4 µg/mL)	8 (≈ 10.4 µg/mL)	78.09	61.5
CC(C)C[C@H](NC(=O)[C@H](CC(C)C)NC(=O)[C@@H](NC(=O)[C@H](CCCCN)NC(=O)[C@H](CC(C)C)NC(=O)[C@H](CCCNC(=N)N)NC(=O)[C@H](CCCCN)NC(=O)[C@H](Cc1ccc2ccccc2c1)NC(=O)[C@H](CC(C)C)NC(=O)CN)[C@@H](C)O)C(N)=O (H-GL[2Nal]KRLKTLL-NH2)	8 (≈ 9.9 µg/mL)	8 (≈ 9.9 µg/mL)	8 (≈ 9.9 µg/mL)	8 (≈ 9.9 µg/mL)	8 (≈ 9.9 µg/mL)	8 (≈ 9.9 µg/mL)	8 (≈ 9.9 µg/mL)	8 (≈ 9.9 µg/mL)	8 (≈ 9.9 µg/mL)	8 (≈ 9.9 µg/mL)	8 (≈ 9.9 µg/mL)	8 (≈ 9.9 µg/mL)	154.3	111
CC(C)C[C@H](NC(=O)[C@H](CC(C)C)NC(=O)[C@@H](NC(=O)[C@H](CCCCN)NC(=O)[C@H](Cc1ccc2ccccc2c1)NC(=O)[C@H](CCCNC(=N)N)NC(=O)[C@H](CCCCN)NC(=O)[C@H](CC(C)C)NC(=O)[C@H](CC(C)C)NC(=O)CN)[C@@H](C)O)C(N)=O (H-GLLKR[2Nal]KTLL-NH2)	16 (≈ 19.8 µg/mL)	16 (≈ 19.8 µg/mL)	8 (≈ 9.9 µg/mL)	8 (≈ 9.9 µg/mL)	16 (≈ 19.8 µg/mL)	16 (≈ 19.8 µg/mL)	16 (≈ 19.8 µg/mL)	4 (≈ 4.95 µg/mL)	16 (≈ 19.8 µg/mL)	4 (≈ 4.95 µg/mL)	16 (≈ 19.8 µg/mL)	32 (≈ 39.6 µg/mL)	> 256	177
CC(C)C[C@H](NC(=O)[C@H](CC(C)C)NC(=O)[C@@H](NC(=O)[C@H](CCCCN)NC(=O)[C@H](Cc1ccc(-c2ccccc2)cc1)NC(=O)[C@H](CCCNC(=N)N)NC(=O)[C@H](CCCCN)NC(=O)[C@H](CC(C)C)NC(=O)[C@H](CC(C)C)NC(=O)CN)[C@@H](C)OP(=O)(O)O)C(N)=O (H-GLLKR[Bip]K[pT]LL-NH2)	128 (≈ 172 µg/mL)	128 (≈ 172 µg/mL)	32 (≈ 43 µg/mL)	32 (≈ 43 µg/mL)	64 (≈ 86 µg/mL)	128 (≈ 172 µg/mL)	128 (≈ 172 µg/mL)	32 (≈ 43 µg/mL)	64 (≈ 86 µg/mL)	64 (≈ 86 µg/mL)	128 (≈ 172 µg/mL)	64 (≈ 86 µg/mL)	> 256	131
H-GLLKRWKYLL-NH2	32	32	16	8	16	16	64	4	16	8	64	64	> 256	> 128
O=C(O)c1cn(C2CC2)c2cc(N3CCNCC3)c(F)cc2c1=O [CIPROFLOXACIN]							16 (≈ 5.3 µg/mL)	2 (≈ 0.663 µg/mL)	< 1	4 (≈ 1.33 µg/mL)		16 (≈ 5.3 µg/mL)		
H-GLLKRWKTLL-NH2	128	128	32	32	32	32	> 128	8	64	8	64	> 128	> 256	> 128
CC(C)C[C@H](NC(=O)[C@H](CC(C)C)NC(=O)[C@@H](NC(=O)[C@H](CCCCN)NC(=O)[C@H](CC(C)C)NC(=O)[C@H](CCCNC(=N)N)NC(=O)[C@H](CCCCN)NC(=O)[C@H](Cc1ccc2ccccc2c1)NC(=O)[C@H](CC(C)C)NC(=O)CN)[C@@H](C)OP(=O)(O)O)C(N)=O (H-GL[2Nal]KRLK[pT]LL-NH2)	128 (≈ 169 µg/mL)	128 (≈ 169 µg/mL)	64 (≈ 84.3 µg/mL)	32 (≈ 42.2 µg/mL)	64 (≈ 84.3 µg/mL)	64 (≈ 84.3 µg/mL)	128 (≈ 169 µg/mL)	32 (≈ 42.2 µg/mL)	64 (≈ 84.3 µg/mL)	32 (≈ 42.2 µg/mL)	128 (≈ 169 µg/mL)	64 (≈ 84.3 µg/mL)	> 256	131
COc1cccc(OC)c1C(=O)N[C@@H]1C(=O)N2[C@@H]1SC(C)(C)[C@@H]2C(=O)O [METHICILLIN]	> 128	> 128	> 128	> 128	> 128	> 128	8 (≈ 3.04 µg/mL)	< 1	> 128	> 128	> 128	> 128		
CC(C)C[C@H](NC(=O)[C@H](CC(C)C)NC(=O)[C@H](Cc1ccc(OP(=O)(O)O)cc1)NC(=O)[C@H](CCCCN)NC(=O)[C@H](Cc1ccc(-c2ccccc2)cc1)NC(=O)[C@H](CCCNC(=N)N)NC(=O)[C@H](CCCCN)NC(=O)[C@H](CC(C)C)NC(=O)[C@H](CC(C)C)NC(=O)CN)C(N)=O (H-GLLKR[Bip]K[pY]LL-NH2)	8 (≈ 11.2 µg/mL)	8 (≈ 11.2 µg/mL)	8 (≈ 11.2 µg/mL)	16 (≈ 22.5 µg/mL)	16 (≈ 22.5 µg/mL)	32 (≈ 45 µg/mL)	16 (≈ 22.5 µg/mL)	8 (≈ 11.2 µg/mL)	8 (≈ 11.2 µg/mL)	32 (≈ 45 µg/mL)	16 (≈ 22.5 µg/mL)	8 (≈ 11.2 µg/mL)	131.69	110
C[C@@H](O)[C@H]1C(=O)N2C(C(=O)O)=C(S[C@@H]3CN[C@H](C(=O)N(C)C)C3)[C@H](C)[C@H]12 [MEROPENEM]	64 (≈ 24.5 µg/mL)	128 (≈ 49.1 µg/mL)	< 1	< 1	< 1	8 (≈ 3.07 µg/mL)	< 1	< 1	< 1	1 (≈ 0.383 µg/mL)	2 (≈ 0.767 µg/mL)	2 (≈ 0.767 µg/mL)		

— ChEMBL document CHEMBL6092167, “Phosphorylation as an Effective Tool to Improve Stability and Reduce Toxicity of Antimicrobial Peptides” (J Med Chem, 2024)
